Read-outs that look alike come from different tables or passages of the source.
Assays:
[1] = system: platelets; test: Chemically modified prothrombin-based platelet activation state (PAS) assay; assay type: cell-based, human; conditions: 0.125 μM thrombin, 10 mins, 37° C.
Description: (§1) Platelet activation level was quantified via cell surface expression of P-selectin utilizing immunohistochemical staining (Hsulin, S. C., et al., A Platelet Membrane-Protein Expressed during Platelet Activation and Secretion-Studies Using a Monoclonal Antibody Specific for Thrombin-Activated Platelets. Journal of Biological Chemistry, 1984. 259(14): p. 9121-9126; Berman, C. L., et al., A Platelet Alpha Granule Membrane-Protein That Is Associated with the Plasma-Membrane after Activation-Characterization and Subcellular-Localization of Platelet Activation Dependent Granule-External Membrane-Protein. Journal of Clinical Investigation, 1986. 78(1): p. […] Platelets were paraformaldehyde fixed (3%, 20 mins) rinsed and incubated (30 min., 37° C.) with FITC Mouse Anti-Human CD62P (50 μl, 1:5 (v/v) dilution in PBS, BD Biosciences, CA) and imaged using fluorescence microscopy. Fluorescence intensity levels were measured following background subtraction. […] Activation of the positive and negative controls was also quantified via the chemically modified prothrombin-based platelet activation state (PAS) assay (Jesty, J. and D. Bluestein, Acetylated prothrombin as a substrate in the measurement of the procoagulant activity of platelets: Elimination of the feedback activation of platelets by thrombin. Analytical Biochemistry, 1999. 272(1): p. 64-70.).

[2] = system: platelets; test: Platelet activation assay: cell surface expression of P-selectin by immunofluorescence; assay type: cell-based, human; conditions: 0.125 μM thrombin, 10 mins, 37° C.; mean ± standard error, >70 platelets
Description: as §1

[3] = system: platelets; conditions: for Platelet deformation along the axis of maximum extension, normalized to the original length: platelets treated with 0.4% paraformaldehyde, 1 MHz
Description: Gel filtered platelets were prepared as previously described, from whole blood drawn from aspirin and non-steroidal anti-inflammatory medication free volunteers providing informed consent (Sheriff, J., et al., High-shear stress sensitizes platelets to subsequent low-shear conditions. Ann Biomed Eng, 2010. 38(4): p. 1442-50).
A 127 μm-thick hollow polymer spacer was placed on top of the chip to create a fluid chamber and the chip was covered with a coverslip for microscopic observation. All chip glass surfaces were coated with Sigmacote (Sigma-Aldrich, MO, USA) and rinsed with D.I. water to prevent surface-induced platelet activation.
To visualize platelets they were first exposed to Alexa Fluor 594 conjugated wheat germ agglutinin (1 μg/mL, 10 mins, 37° C., Invitrogen, CA). Platelets were then diluted 100-200 fold (v/v) in isotonic buffer (Pommer, M. S., et al., Dielectrophoretic separation of platelets from diluted whole blood in microfluidic channels. Electrophoresis, 2008. 29(6): p. 1213-8) containing 8.5% w/v sucrose and 0.3% w/v dextrose until the medium conductivity reached ˜1500/cm. as measured by a Jenway 4520 conductivity meter (Jenway, Staffordshire, UK). 50 μl of the diluted platelets sample were pipetted into the fluid chamber of the microelectrode chip. An alternating electric current in a sine wave pattern was generated across the microelectrodes using a function generator (332220A, Agilent, CA,) connected to a wideband power amplifier (7600M, Krohn-hite, MA). The amplitude of applied voltage was monitor via digital oscilloscope (GDS-1102, GW Instek, CA). The sample chip was imaged via fluorescence microscopy (Eclipse E800, 100× oil, Nikon, N.Y.), images were captured via CCD (Sensicam 12bt CCD camera, Cooke Corporation, MI), processed and quantified using NIH Image J software.
In the studies, platelet deformations under sequential increase of applied voltage, from 0 to 90Vpk-pk at 15V steps, were measured at a frequency of 1 MHz and the result is shown in FIG. 4A. […] Images of deformed platelets were captured in a duration ˜5s.

| Substance | Platelet activation level (PAS assay) [1] [%] | P-selectin expression, averaged fluorescence intensity level [2] | Decrease in deformation compared to untreated platelets ([3]; 0.4% paraformaldehyde, 90Vpk-pk applied voltage, p-value=0.0002) [times] | Young's modulus of platelets (slope of linear fitted stress-deformation curve) ([3]; platelets treated by 0.4% paraformaldehyde, stress from Maxwell stress tensor simulation) | Platelet deformation along the axis of maximum extension, normalized to the original length ([3]; applied voltage 15 V) [%] | Platelet deformation along the axis of maximum extension, normalized to the original length ([3]; applied voltage 90 V) [%] |
| --- | --- | --- | --- | --- | --- | --- |
| thrombin | 24.7 | 1526.15±75.04 |  |  |  |  |
| paraformaldehyde |  |  | 2.75 | 8.5+/−1.5 kPa | 0.73±1.33 | 4.90±1.98 |

— patent publication US11668699B2, “Compositions and methods for determining mechanical properties of cells” (Arizona Board of Regents on Behalf of the University of …, priority 2016, dated 2023)
